In ChEMBL document CHEMBL1148442, “Design, synthesis, and evaluation of metabolism-based analogues of haloperidol incapable of forming MPP+-like species” (J Med Chem, 2004):

Tests used:
[1] = molecular target: D(3) dopamine receptor (Homo sapiens) (UniProt P35462)
Description: Displacement of [3H]7-OH-DPAT from human Dopamine receptor D3

[2] = molecular target: D(2) dopamine receptor (Homo sapiens) (UniProt P14416)
Description: Displacement of [3H]spiperone from human Dopamine receptor D2

[3] = molecular target: T1, D(4) dopamine receptor (Homo sapiens) (UniProt P21917)
T1 sequence (whole entry): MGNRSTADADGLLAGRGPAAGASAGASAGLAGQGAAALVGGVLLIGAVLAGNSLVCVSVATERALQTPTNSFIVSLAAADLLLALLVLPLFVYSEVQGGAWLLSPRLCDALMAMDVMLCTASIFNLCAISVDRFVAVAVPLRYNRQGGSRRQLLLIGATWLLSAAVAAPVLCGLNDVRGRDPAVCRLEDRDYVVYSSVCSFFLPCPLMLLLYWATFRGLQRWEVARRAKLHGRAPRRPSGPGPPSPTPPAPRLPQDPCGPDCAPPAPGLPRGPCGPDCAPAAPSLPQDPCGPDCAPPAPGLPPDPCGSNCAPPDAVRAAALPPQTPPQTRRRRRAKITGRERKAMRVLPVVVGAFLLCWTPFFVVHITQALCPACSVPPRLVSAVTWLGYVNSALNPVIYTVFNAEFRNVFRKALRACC
Description: Displacement of [3H]spiperone from human Dopamine receptor D4

Chain of D(2) dopamine receptor (Homo sapiens) (P14416 whole entry): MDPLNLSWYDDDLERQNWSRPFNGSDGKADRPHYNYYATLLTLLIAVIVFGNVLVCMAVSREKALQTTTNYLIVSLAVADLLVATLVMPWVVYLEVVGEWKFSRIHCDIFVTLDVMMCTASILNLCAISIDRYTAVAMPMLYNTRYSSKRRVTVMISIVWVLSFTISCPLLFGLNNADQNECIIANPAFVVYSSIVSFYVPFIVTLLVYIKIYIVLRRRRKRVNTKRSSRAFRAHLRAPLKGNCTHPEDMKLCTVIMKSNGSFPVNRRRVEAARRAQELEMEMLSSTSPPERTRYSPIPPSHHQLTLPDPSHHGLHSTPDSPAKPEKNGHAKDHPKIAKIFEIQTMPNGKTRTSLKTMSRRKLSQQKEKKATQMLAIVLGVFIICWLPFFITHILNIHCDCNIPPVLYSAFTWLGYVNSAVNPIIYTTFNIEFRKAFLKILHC
Chain of D(3) dopamine receptor (Homo sapiens) (P35462 whole entry): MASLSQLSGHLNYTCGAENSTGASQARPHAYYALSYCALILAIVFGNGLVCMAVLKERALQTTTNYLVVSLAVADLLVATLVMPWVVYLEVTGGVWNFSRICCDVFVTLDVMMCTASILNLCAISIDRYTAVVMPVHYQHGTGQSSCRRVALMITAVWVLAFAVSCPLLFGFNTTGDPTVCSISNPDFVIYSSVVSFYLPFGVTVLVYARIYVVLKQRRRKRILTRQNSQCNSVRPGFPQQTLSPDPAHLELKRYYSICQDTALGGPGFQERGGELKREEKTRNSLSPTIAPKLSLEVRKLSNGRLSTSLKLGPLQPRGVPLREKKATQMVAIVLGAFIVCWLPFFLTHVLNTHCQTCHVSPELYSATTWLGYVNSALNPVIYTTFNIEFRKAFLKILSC

| SMILES | pKi [1] | pKi [2] | pKi [3] |
| --- | --- | --- | --- |
| O=C(CCCN1CCC(C(O)c2ccc(Cl)cc2)CC1)c1ccc(F)cc1 (stereo not given) | 7.11 | 7.62 | 6.91 |
| O=C(CCC[n+]1ccc(-c2ccc(Cl)cc2)cc1)c1ccc(F)cc1 | < 6 | < 6 | < 6 |
| O=C(CCCN1CCC(c2ccc(Cl)cc2)CC1)c1ccc(F)cc1 | 7.34 | – | 7.59 |
| O=C(CCCN1CCC(O)(Cc2ccc(Cl)cc2)CC1)c1ccc(F)cc1 | 8.05 | 8.1 | 7.23 |
| O=C(CCCN1CCC(CO)(c2ccc(Cl)cc2)CC1)c1ccc(F)cc1 | 6.96 | 7.81 | 7.11 |
| O=C(CCCN1CCC(CCO)(c2ccc(Cl)cc2)C1)c1ccc(F)cc1 (stereo not given) | 7.49 | 7.64 | 6.71 |
| O=C(CCCN1CCC(c2ccc(Cl)cc2)C1)c1ccc(F)cc1 (stereo not given) | – | 7.81 | 7.82 |
| CN(CCCC(=O)c1ccc(F)cc1)CCCC(O)c1ccc(Cl)cc1 (stereo not given) | 6.79 | – | 6.72 |
| O=C(CCCN1CCCC(O)(c2ccc(Cl)cc2)CC1)c1ccc(F)cc1 (stereo not given) | – | 8.96 | – |
| O=C(CCCN1CCC(CO)(c2ccc(Cl)cc2)C1)c1ccc(F)cc1 (stereo not given) | 6.78 | 7.36 | 7.62 |
